{"source": "paper PMC10108266", "about": "“Pharmacokinetic characteristics of golidocitinib, a highly selective JAK1 inhibitor, in healthy adult participants” (Frontiers in Immunology, 2023)", "key": {"[1]": {"experiment": "JACKPOT3 SAD urinary PK (100 mg)", "assay_type": "in vivo, human", "conditions": "single dose 100 mg", "method": "After single oral administration, serial blood samples were obtained on Day 1 at pre-dose, and at 0.5, 1, 1.5, 2, 3, 4, 6, 8, 12, 24 (Day 2), 48 (Day 3), 72 (Day 4), 120 (Day 6), 168 (Day 8) and 216 (Day 10) hours post-dose for plasma PK analysis. Urine samples were collected during the collection intervals of 0-4, 4-10, 10-24, 24-48, 48-72, 72-96, 96-120, 120-144, and 144-168 hours following a single oral dose of 100 mg for urine PK analysis. Validated LC/MS methods were used for the determination of golidocitinib in human plasma and urine by Frontage Laboratories Inc. (Shanghai). This method was cross validated by Frontage Laboratories Inc. (New Jersey, USA) and met the acceptance criteria.\nThe mean (SD) amount of golidocitinib excreted in the urine over the collection period and renal clearance are presented in Table 2B . The average amount of golidocitinib excreted in the urine increased in an approximately dose proportional manner from 25 mg to 100 mg. […] The renal excretion fraction (Fe0-t) is helpful to compare the renal clearance (CLr) with total clearance (CLtotal) and determine the contribution of renal clearance in the drug elimination. It was calculated by the equation Fe0-t = CLr/CLtotal. The CL/F values were obtained from the two Phase I studies after the oral administration. Since the pharmacokinetics of golidocitinib after intravenous injection was not studied, the bioavailability value (F) was calculated by physiologically based pharmacokinetic (PBPK) model that incorporated compound specific information and independent prior knowledge on the physiology and biology at the organism."}, "[2]": {"experiment": "Pooled JACKPOT2/JACKPOT3 SAD analysis of the effect of race on PK", "assay_type": "in vivo, human", "conditions": "for Dose normalized AUC0-inf, GLS Mean / Dose normalized AUC0-t, GLS Mean / Dose normalized Cmax, GLS Mean: ANCOVA; for Vd/F / half-life: human, plasma, oral", "method": "Assessment of inter-ethnic difference of golidocitinib PK: The primary analyses of AUC0–t, AUC0–inf, and Cmax (log-transformed dose-normalized PK parameters) were performed using an analysis of covariance (ANCOVA) model, with the ethnic group as a fixed effect and dose (log scale) as a covariate. The analysis of variance (ANOVA) model was built for the secondary PK endpoints (log-transformed CL/F, Vz/F, and t1/2) with the ethnic group as a fixed effect. The Black/Caucasian and Asian/Caucasian ratios of the geometric mean were calculated by taking the antilogarithm of the difference between group means and corresponding 90% confidence intervals (CIs) in the log scale. Other analyses are descriptive, and no formal statistical comparison is performed for pooled JACKPOT2 and JACKPOT3 data. As the study design of SAD cohorts in JACKPOT2 and JACKPOT3 studies was similar, pooled analysis was performed. The race factor is the focus potentially used for the exposure comparison. A total of 62 participants were included in the analysis (11 Caucasians, 19 Blacks and 32 Asians)."}, "[3]": {"experiment": "In vitro binding to human plasma", "assay_type": "in vitro ADME"}, "Permeability in vitro": {"experiment": "Permeability in vitro", "assay_type": "in vitro ADME"}, "[4]": {"experiment": "Overall safety and tolerability, JACKPOT2 and JACKPOT3", "assay_type": "in vivo, human", "description": "Safety assessments included monitoring of adverse events/serious adverse events, clinical safety laboratory tests (clinical chemistry, hematology, coagulation, and urinalysis tests), 12-lead ECG, vital signs (blood pressure, pulse rate, and respiratory rate), and pulmonary function. All adverse events were coded using the Medical Dictionary for Regulatory Activities (MedDRA), version 22.0. The CTCAE 5.0 was used to define the intensity of AEs.\nThe safety monitoring for both JACKPOT2 and JACKPOT3 was similar, included monitoring of adverse events/serious adverse events, clinical safety laboratory tests (clinical chemistry, hematology, coagulation, and urinalysis tests), 12-lead ECG, vital signs (blood pressure, pulse rate, and respiratory rate), and pulmonary function."}, "JAK1": {"tested_on": "JAK1", "parameters": "method as in PMID 32297743", "conditions": "ref [9]; cited from earlier work"}, "[5]": {"parameters": "method as in JACKPOT5, NCT04225208", "conditions": "concluded from metabolic profile in human, radiolabeled mass balance study in 8 healthy participants ref JACKPOT5, NCT04225208; cited from earlier work"}}, "note": "Where two headings read alike, the source gives them in different places."}
{"smiles": "COc1nn(C)cc1Nc1nccc(-c2c[nH]c3c(NC(=O)[C@@H](C)N4CCN(C)CC4)cccc23)n1", "note": "[golidocitinib, (2R)-N-[3-[2-[(3-Methoxy-1-methyl-pyrazol-4-yl)amino]pyrimidin-4-yl]-1H-indol-7-yl]-2-(4-methylpiperazin-1-yl)propenamide]", "values": [{"measurement": "CL renal", "setting": "[1]; human, urine and plasma, oral, Ae0-t/AUC0-t, mean (SD)", "result": 67.8, "unit": "mL/min"}, {"measurement": "CLtotal", "setting": "[1]; CL/F * F (0.7 from PBPK model)", "result": 15.0, "unit": "L/h"}, {"measurement": "Fe0-t", "setting": "[1]; CLr/CLtotal", "result": 27.2, "unit": "%"}, {"measurement": "Ae0-t", "setting": "[1]; urine 0-168 hour, mean (SD)", "result": "19.5 (6.22) mg"}, {"measurement": "CL/F, Geometric Mean (CV%)", "setting": "[2]; Asian, n 24, single dose", "result": "20.07 (21.59) L/hr"}, {"measurement": "Dose normalized AUC0-inf, Geometric Mean (CV%)", "setting": "[2]; Asian, n 24, single dose", "result": "49.82 (21.63) hr*ng/mL/mg"}, {"measurement": "Dose normalized AUC0-t, Geometric Mean (CV%)", "setting": "[2]; Asian, n 24, single dose", "result": "48.15 (23.34) hr*ng/mL/mg"}, {"measurement": "Dose normalized Cmax, Geometric Mean (CV%)", "setting": "[2]; Asian, n 24, single dose", "result": "1.70 (24.14) ng/mL/mg"}, {"measurement": "Dose normalized AUC0-inf, GLS Mean", "setting": "[2]; Asian, single dose", "result": 49.76, "unit": "ng·h/mL/mg"}, {"measurement": "Dose normalized AUC0-t, GLS Mean", "setting": "[2]; Asian, single dose", "result": 47.50, "unit": "ng·h/mL/mg"}, {"measurement": "Dose normalized Cmax, GLS Mean", "setting": "[2]; Asian, single dose", "result": 1.66, "unit": "ng/mL/mg"}, {"measurement": "CL/F, GLS Mean", "setting": "[2]; Asian, single dose, ANOVA", "result": 20.07, "unit": "L/h"}, {"measurement": "CL/F, Ratio of GLS means", "setting": "[2]; Asian/Caucasian", "result": 0.88}, {"measurement": "Dose normalized AUC0-inf, Ratio of GLS means", "setting": "[2]; Asian/Caucasian", "result": 1.2}, {"measurement": "Dose normalized AUC0-t, Ratio of GLS means", "setting": "[2]; Asian/Caucasian", "result": 1.1}, {"measurement": "Dose normalized Cmax, Ratio of GLS means", "setting": "[2]; Asian/Caucasian", "result": 1.4}, {"measurement": "Vz/F, Ratio of GLS means", "setting": "[2]; Asian/Caucasian", "result": 0.76}, {"measurement": "t1/2, Ratio of GLS means", "setting": "[2]; Asian/Caucasian", "result": 0.87}, {"measurement": "Dose normalized AUC0-inf, Geometric Mean (CV%)", "setting": "[2]; Black, n 10 (5 mg group not included), single dose", "result": "51.54 (22.55) hr*ng/mL/mg"}, {"measurement": "CL/F, Geometric Mean (CV%)", "setting": "[2]; Black, n 10, single dose", "result": "19.40 (22.55) L/hr"}, {"measurement": "Dose normalized AUC0-t, Geometric Mean (CV%)", "setting": "[2]; Black, n 13, single dose", "result": "46.51 (23.98) hr*ng/mL/mg"}, {"measurement": "Dose normalized Cmax, Geometric Mean (CV%)", "setting": "[2]; Black, n 13, single dose", "result": "1.12 (26.07) ng/mL/mg"}, {"measurement": "Dose normalized AUC0-inf, GLS Mean", "setting": "[2]; Black, single dose", "result": 52.05, "unit": "ng·h/mL/mg"}, {"measurement": "Dose normalized AUC0-t, GLS Mean", "setting": "[2]; Black, single dose", "result": 47.72, "unit": "ng·h/mL/mg"}, {"measurement": "Dose normalized Cmax, GLS Mean", "setting": "[2]; Black, single dose", "result": 1.19, "unit": "ng/mL/mg"}, {"measurement": "CL/F, GLS Mean", "setting": "[2]; Black, single dose, ANOVA", "result": 19.40, "unit": "L/h"}, {"measurement": "CL/F, Ratio of GLS means", "setting": "[2]; Black/Caucasian", "result": 0.85}, {"measurement": "Dose normalized AUC0-inf, Ratio of GLS means", "setting": "[2]; Black/Caucasian", "result": 1.2}, {"measurement": "Dose normalized AUC0-t, Ratio of GLS means", "setting": "[2]; Black/Caucasian", "result": 1.1}, {"measurement": "Dose normalized Cmax, Ratio of GLS means", "setting": "[2]; Black/Caucasian", "result": 1.0}, {"measurement": "Vz/F, Ratio of GLS means", "setting": "[2]; Black/Caucasian", "result": 1.1}, {"measurement": "t1/2, Ratio of GLS means", "setting": "[2]; Black/Caucasian", "result": 1.3}, {"measurement": "Dose normalized AUC0-inf, Geometric Mean (CV%)", "setting": "[2]; Caucasian, n 6 (5 mg group not included), single dose", "result": "43.62 (23.48) hr*ng/mL/mg"}, {"measurement": "CL/F, Geometric Mean (CV%)", "setting": "[2]; Caucasian, n 6, single dose", "result": "22.92 (23.48) L/hr"}, {"measurement": "Dose normalized AUC0-t, Geometric Mean (CV%)", "setting": "[2]; Caucasian, n 7, single dose", "result": "42.59 (28.57) hr*ng/mL/mg"}, {"measurement": "Dose normalized Cmax, Geometric Mean (CV%)", "setting": "[2]; Caucasian, n 7, single dose", "result": "1.17 (30.17) ng/mL/mg"}, {"measurement": "Dose normalized AUC0-inf, GLS Mean", "setting": "[2]; Caucasian, single dose", "result": 43.13, "unit": "ng·h/mL/mg"}, {"measurement": "Dose normalized AUC0-t, GLS Mean", "setting": "[2]; Caucasian, single dose", "result": 42.52, "unit": "ng·h/mL/mg"}, {"measurement": "Dose normalized Cmax, GLS Mean", "setting": "[2]; Caucasian, single dose", "result": 1.16, "unit": "ng/mL/mg"}, {"measurement": "CL/F, GLS Mean", "setting": "[2]; Caucasian, single dose, ANOVA", "result": 22.92, "unit": "L/h"}, {"measurement": "Vd/F", "setting": "[2]; Asian, n 24, single dose, read-out: Vz/F, Geometric Mean (CV%)", "result": 1020, "unit": "L"}, {"measurement": "half-life", "setting": "[2]; Asian, n 24, single dose, read-out: t1/2, Geometric Mean (CV%) (converted)", "result": 2120, "unit": "min"}, {"measurement": "Vd/F", "setting": "[2]; Asian, single dose, ANOVA, read-out: Vz/F, GLS Mean", "result": 1020, "unit": "L"}, {"measurement": "half-life", "setting": "[2]; Asian, single dose, ANOVA, read-out: t1/2, GLS Mean (converted)", "result": 2120, "unit": "min"}, {"measurement": "Vd/F", "setting": "[2]; Black, n 10, single dose, read-out: Vz/F, Geometric Mean (CV%)", "result": 1420, "unit": "L"}, {"measurement": "half-life", "setting": "[2]; Black, n 10, single dose, read-out: t1/2, Geometric Mean (CV%) (converted)", "result": 3050, "unit": "min"}, {"measurement": "Vd/F", "setting": "[2]; Black, single dose, ANOVA, read-out: Vz/F, GLS Mean", "result": 1420, "unit": "L"}, {"measurement": "half-life", "setting": "[2]; Black, single dose, ANOVA, read-out: t1/2, GLS Mean (converted)", "result": 3050, "unit": "min"}, {"measurement": "Vd/F", "setting": "[2]; Caucasian, n 6, single dose, read-out: Vz/F, Geometric Mean (CV%)", "result": 1350, "unit": "L"}, {"measurement": "half-life", "setting": "[2]; Caucasian, n 6, single dose, read-out: t1/2, Geometric Mean (CV%) (converted)", "result": 2450, "unit": "min"}, {"measurement": "Vd/F", "setting": "[2]; Caucasian, single dose, ANOVA, read-out: Vz/F, GLS Mean", "result": 1350, "unit": "L"}, {"measurement": "half-life", "setting": "[2]; Caucasian, single dose, ANOVA, read-out: t1/2, GLS Mean (converted)", "result": 2450, "unit": "min"}, {"measurement": "bound to human plasma", "setting": "[3]; human plasma of Caucasian and Chinese, in vitro", "result": "~ 63%"}, {"measurement": "fraction unbound", "setting": "[3]; human, plasma, read-out: free fraction in plasma", "result": 0.373}, {"measurement": "permeability", "setting": "Permeability in vitro", "result": "high permeability"}, {"measurement": "tolerability", "setting": "[4]; healthy participants, 5 mg to 150 mg single dose, 25 mg to 100 mg multiple dose", "result": "well-tolerated"}, {"measurement": "serious adverse events", "setting": "[4]; in vivo", "result": "No serious adverse events were reported"}, {"measurement": "CTCAE grade 3 or higher drug-related TEAE", "setting": "[4]; investigators' assessment", "result": "no CTCAE grade 3 or higher drug-related TEAE was reported"}, {"measurement": "selectivity to JAK1 over other JAK family kinases", "setting": "JAK1", "result": "greater than 200 folds"}, {"measurement": "oral bioavailability", "setting": "[5]", "result": "> 80", "unit": "%"}]}
